# Measurements: patent publication US8278337B2, “Substituted pyridines that are JNK inhibitors” (Merck Sharp & Dohme, priority 2006, dated 2012)
# “And” between values parts separate entries of the source, which are not always exact repeats. Equal values may be shown once.
# Biological target: JNK1 (Homo sapiens, UniProt P45983)
# Assay: DELFIA kinase assay, JNK1
# Type: biochemical
# Conditions: DELFIA assay, 2 nM JNK1, 7 uM ATP, 10 min pre-incubation; second table; read-out: JNK 1 IC50
# How it was run: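 Enzyme (2 nM JNK1) was preincubated 10 min with 0–100 μM compound in HEPES pH 7.3 with 5% DMSO, then reacted 30 min at room temperature with biotinylated GST-ATF2 (6 ug/mL). Final ATP was 7 uM for JNK1, 4 uM for JNK2 and 2 uM for JNK3. Phospho-ATF2 was detected by DELFIA europium fluorescence (ex 340, em 615 nm).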
# Sequence of JNK1 (P45983 whole entry, species assumed): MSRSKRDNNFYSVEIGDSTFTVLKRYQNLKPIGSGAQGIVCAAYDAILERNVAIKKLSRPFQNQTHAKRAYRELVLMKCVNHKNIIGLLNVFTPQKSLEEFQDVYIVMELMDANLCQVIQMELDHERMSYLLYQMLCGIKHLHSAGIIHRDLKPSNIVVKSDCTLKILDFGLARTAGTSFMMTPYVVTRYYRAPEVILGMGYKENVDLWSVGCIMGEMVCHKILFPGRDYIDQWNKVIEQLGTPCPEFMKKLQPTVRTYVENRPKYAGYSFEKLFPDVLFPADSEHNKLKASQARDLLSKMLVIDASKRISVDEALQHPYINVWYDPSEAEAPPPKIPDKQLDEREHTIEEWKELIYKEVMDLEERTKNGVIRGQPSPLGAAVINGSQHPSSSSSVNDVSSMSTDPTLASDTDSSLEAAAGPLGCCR
row,Structure (SMILES),IC50
1,CS(=O)(=O)c1ccc(-n2cc(CNC(=O)c3cccc(C(=O)NC4CCC4)n3)cn2)cc1 [Compound 76],10 nM
2,CC(C)NC(=O)c1cccc(C(=O)NCc2cnn(-c3ccc4nccnc4c3)c2)n1 [Compound 151],13 nM

# Same assay, conditions: DELFIA, biotinylated GST-ATF2 substrate, 10 minute pre-incubation, final ATP 7 uM
row,Structure (SMILES),IC50
1,CC(C)NC(=O)c1cccc(C(=O)NCc2ccc(-c3cccc(C(F)(F)F)c3)nc2)n1 [Compound 183],102 to 959 nM
2,Cc1cccc(-c2ccc(CNC(=O)c3cccc(C(=O)NC(C)C)n3)cn2)c1 [Compound 174],102 to 959 nM
3,CS(=O)(=O)c1ccc(CNC(=O)c2cccc(-n3cc(-c4ccccn4)cn3)n2)cc1 [Compound 334],102 to 959 nM
4,CC(C)NC(=O)c1cccc(C(=O)NCc2cncc(Br)c2)n1 [Compound 254],102 to 959 nM
5,Nc1nc2ccc(CNC(=O)c3cccc(C(=O)N[C@H](CO)Cc4ccccc4)n3)cc2s1 [Compound 22],> 1000 nM
6,CNCCNc1nc2ccc(CNC(=O)c3cccc(C(=O)NC(C)C)n3)cc2s1 [Compound 203],4 to 97 nM
7,CC(C)NC(=O)c1cccc(C(=O)NCC2CCN(C(=O)OC(C)(C)C)CC2)n1 [Compound 94],102 to 959 nM
8,CS(=O)(=O)c1ccc(CNC(=O)c2cccc(C(=O)NC3CCN(c4ccc5ccccc5n4)CC3)n2)cc1 [Compound 276],> 1000 nM
9,O=C(NCc1cnn(-c2ccccc2)c1)c1cccc(-n2cc(I)cn2)n1 [Compound 291],102 to 959 nM
10,CC(C)NC(=O)c1cccc(C(=O)NCc2ccc(N3CCOCC3)nc2)n1 [Compound 115],102 to 959 nM
11,CC(C)NC(=O)c1cccc(C(=O)NCc2cnn(-c3cccc(Cl)c3)c2)n1 [Compound 132],4 to 97 nM
12,CS(=O)(=O)c1ccc(-n2cc(CNC(=O)c3cccc(C(=O)NC4CCC4)n3)cn2)cc1 [Compound 76],4 to 19 nM and 4 to 97 nM
13,CN(C)C(=O)c1cccc(C(=O)NCc2ccc3nc(N)sc3c2)n1 [Compound 13],> 1000 nM
14,CS(=O)(=O)c1ccc(CNC(=O)c2cccc(-c3nc4ccccc4[nH]3)n2)cc1 [Compound 376],102 to 959 nM
15,CC(O)CNC(=O)c1cccc(C(=O)NCc2ccc3nc(N)sc3c2)n1 (stereo not shown) [Compound 19],> 1000 nM
16,Nc1nc2ccc(CNC(=O)c3cccc(C(=O)N[C@H](CO)c4ccccc4)n3)cc2s1 [Compound 51],102 to 959 nM
17,Nc1nc2ccc(CNC(=O)c3cccc(C(=O)NCCO)n3)cc2s1 [Compound 15],> 1000 nM
18,CC(C)NC(=O)c1cccc(C(=O)NCc2ccc(N)nc2)n1 [Compound 113],102 to 959 nM
19,Nc1nc2ccc(CNC(=O)c3cccc(C(=O)NC4CCCC4)n3)cc2s1 [Compound 67],102 to 959 nM
20,O=C(NCc1cnn(-c2cccc(C(F)(F)F)c2)c1)c1cccc(N2CCOCC2)n1 [Compound 345],1030 to 10000 nM and > 1000 nM
21,COC(=O)c1ccc(C2CCN(C(=O)c3cccc(C(=O)NCc4ccc5nc(N)sc5c4)n3)CC2O)cc1 (stereo not shown) [Compound 33],> 1000 nM
22,O=C(NCc1nc2ccccc2s1)c1cccc(-c2nc3ccccc3[nH]2)n1 [Compound 378],102 to 959 nM
23,CC[C@@H](CO)NC(=O)c1cccc(C(=O)NCc2ccc3nc(N)sc3c2)n1 [Compound 9],4 to 97 nM
24,CCOC(=O)N1CCC(NC(=O)c2cccc(C(=O)NCc3ccc(S(C)(=O)=O)cc3)c2)CC1 [Compound 371],> 1000 nM
25,CCOC(=O)N1CCC(NC(=O)c2cccc(NCC3CCNCC3)n2)CC1 [Compound 395],> 1000 nM
26,O=C(NCc1cnn(-c2cccc(C(F)(F)F)c2)c1)c1cccc(N2Cc3ccccc3C2)n1 [Compound 344],> 1000 nM
27,CC(C)NC(=O)c1cccc(C(=O)N[C@@H](C)c2ccc(O)cc2)n1 [Compound 124],102 to 959 nM

row,Structure (SMILES),IC50
1,CC(C)(C)c1nnc(-c2cccc(C(=O)NCc3ccc(S(C)(=O)=O)cc3)n2)o1 [Compound 303],> 1000 nM and 1030 to 10000 nM
2,CCS(=O)(=O)N1CCC(NC(=O)c2cccc(C(=O)NCc3ccc(S(C)(=O)=O)cc3)n2)CC1 [Compound 60],> 1000 nM
3,Cc1ccc(-n2cc(CNC(=O)c3cccc(C(=O)NC(C)C)n3)cn2)cc1 [Compound 130],4 to 19 nM and 4 to 97 nM
4,Nc1nc2ccc(CNC(=O)c3cccc(C(=O)NC4CCCCC4)n3)cc2s1 [Compound 12],4 to 97 nM
5,CC(C)NC(=O)c1cccc(C(=O)NCc2ccc(-c3ccc(F)c(Cl)c3)nc2)n1 [Compound 184],102 to 959 nM
6,CC(C)NC(=O)c1cccc(-n2cc(I)cn2)n1 [Compound 287],> 1000 nM and 1030 to 10000 nM
7,Nc1nc2ccc(CNC(=O)c3cccc(C(=O)N4CCC(c5cccc(O)c5)C(O)C4)n3)cc2s1 (stereo not shown) [Compound 31],> 1000 nM
8,CC(C)NC(=O)c1cccc(C(=O)NCc2cnn(-c3ccc4nc(C(C)C)n(C)c4c3)c2)n1 [Compound 235],4 to 19 nM and 4 to 97 nM
9,CC(=O)N(C)c1cccc(C(=O)NCc2cnn(-c3cccc(C(F)(F)F)c3)c2)n1 [Compound 363],> 1000 nM and 1030 to 10000 nM
10,CS(=O)(=O)c1ccc(CNC(=O)c2cccc(-n3cncn3)n2)cc1 [Compound 326],1030 to 10000 nM and > 1000 nM
11,CC(C)NC(=O)c1cccc(C(=O)NCc2ccc(-c3ccccc3)cc2)n1 [Compound 112],102 to 959 nM
12,Cc1ccn(-c2cccc(C(=O)NCc3ccc(S(C)(=O)=O)cc3)n2)n1 [Compound 324],1030 to 10000 nM and > 1000 nM
13,CCOC(=O)N1CCC(NC(=O)c2cccc(NCCc3ccncc3)n2)CC1 [Compound 393],> 1000 nM
14,O=C(Nc1cccnc1)c1cccc(-n2cc(I)cn2)n1 [Compound 288],> 1000 nM and 1030 to 10000 nM
15,COc1ccc(-c2cc(CNC(=O)c3cccc(C(=O)NC(C)C)n3)no2)cc1 [Compound 86],4 to 97 nM
16,CCOC(=O)Nc1cccc(C(=O)NC2CCN(C(=O)OCC)CC2)n1 [Compound 400],> 1000 nM and 1030 to 10000 nM
17,CC(C)NC(=O)c1cccc(C(=O)NCc2ccc(S(C)(=O)=O)cc2)n1 [Compound 88],102 to 959 nM
18,COc1cccc(-c2cccc(C(=O)NCc3ccc(S(C)(=O)=O)cc3)n2)c1F [Compound 330],102 to 959 nM
19,CC(C)NC(=O)c1cccc(C(=O)NCc2cnn(-c3cncc(C#N)c3)c2)n1 [Compound 161],4 to 97 nM
20,CCOC(=O)c1cccc(C(=O)NCc2ccc3nc(N)sc3c2)n1 [Compound 62],> 1000 nM
21,CCOC(=O)N1CCC(NC(=O)c2cccc(Nc3ccc4ncccc4c3)n2)CC1 [Compound 389],> 1000 nM
22,CCOC(=O)c1cnn(-c2cccc(C(=O)NCc3ccc(S(C)(=O)=O)cc3)n2)c1 [Compound 319],> 1000 nM and 1030 to 10000 nM
23,CC(C)NC(=O)c1cccc(C(=O)Nc2ccc3nccnc3c2)n1 [Compound 91],> 1000 nM and 1030 to 10000 nM
24,Nc1nc2ccc(CNC(=O)c3cccc(-n4cccn4)n3)cc2s1 [Compound 264],102 to 959 nM
25,CC(C)NC(=O)c1cccc(C(=O)NCc2ccc(S(N)(=O)=O)cc2)n1 [Compound 98],102 to 959 nM
26,N#Cc1ccccc1N1CCC(NC(=O)c2cccc(C(=O)NCc3ccc4nc(N)sc4c3)n2)CC1 [Compound 10],4 to 97 nM
27,CC(C)NC(=O)c1cccc(C(=O)NCc2cnn(-c3ccc4nccnc4c3)c2)n1 [Compound 151],4 to 19 nM and 4 to 97 nM

row,Structure (SMILES),IC50
1,CC(C)NC(=O)c1cccc(C(=O)NCc2cncc(-c3ccc(S(C)(=O)=O)cc3)c2)n1 [Compound 255],4 to 97 nM
2,Cc1cc(NC(=O)c2cccc(C(=O)NCc3cnn(-c4ccc(S(C)(=O)=O)cc4)c3)n2)no1 [Compound 78],4 to 97 nM
3,CC(C)NC(=O)c1cccc(C(=O)NCc2ccc(-c3ccc(Cl)cc3)nc2)n1 [Compound 182],102 to 959 nM
4,CC(C)NC(=O)c1cccc(C(=O)NCc2ccnn2-c2ccc(S(C)(=O)=O)cc2)n1 [Compound 310],> 1000 nM and 1030 to 10000 nM
5,CS(=O)(=O)c1ccc(CNC(=O)c2cccc(-n3cc(Br)cn3)n2)cc1 [Compound 328],102 to 959 nM
6,Cc1cnn(-c2cccc(C(=O)NCc3ccc(S(C)(=O)=O)cc3)n2)c1 [Compound 323],1030 to 10000 nM and > 1000 nM
7,CC(C)NC(=O)c1cccc(C(=O)NCc2cnn(-c3cncnc3)c2)n1 [Compound 145],102 to 959 nM
8,CC(C)CN(C)c1cccc(C(=O)NCc2ccc(S(C)(=O)=O)cc2)n1 [Compound 338],> 1000 nM and 1030 to 10000 nM
9,CS(=O)(=O)c1ccc(CNC(=O)c2cccc(-n3cnc(Br)c3)n2)cc1 [Compound 327],1030 to 10000 nM and > 1000 nM
10,CC(C)NC(=O)c1cccc(C(=O)NCC2CCN(c3ccc(C#N)cc3)CC2)n1 [Compound 420],> 1000 nM and 1030 to 10000 nM
11,CS(=O)(=O)c1ccc(-n2cc(CNC(=O)c3cccc(-n4cc(-c5ccc(F)cc5)cn4)n3)cn2)cc1 [Compound 296],102 to 959 nM
12,COc1cccc(C(=O)NCc2ccc3nc(N)sc3c2)n1 [Compound 267],> 1000 nM
13,CNC(=O)c1cccc(C(=O)NCc2ccc3nc(N)sc3c2)n1 [Compound 47],> 1000 nM
14,CC(C)NC(=O)c1cccc(C(=O)NCc2cnn(-c3ccc4[nH]cnc4c3)c2)n1 [Compound 148],4 to 97 nM
15,CC(C)NC(=O)c1cccc(C(=O)NCc2ccc(-c3cccc(F)c3)nc2)n1 [Compound 175],4 to 97 nM
16,CC(C)NC(=O)c1cccc(C(=O)NCC2CCN(c3cccc(S(C)(=O)=O)c3)CC2)n1 [Compound 421],> 1000 nM and 1030 to 10000 nM
17,CNS(=O)(=O)c1ccc(-n2cc(CNC(=O)c3cccc(C(=O)NC(C)C)n3)cn2)cc1 [Compound 244],4 to 19 nM and 4 to 97 nM
18,CC(C)NC(=O)c1cccc(-c2nc3ccccc3[nH]2)n1 [Compound 377],> 1000 nM and 1030 to 10000 nM
19,Nc1nc2ccc(CNC(=O)c3cccc(C(=O)N[C@H]4CC[C@H](O)CC4)n3)cc2s1 [Compound 68],102 to 959 nM
20,CCOC(=O)N1CCC(NC(=O)c2cccc(C(=O)NCCO)n2)CC1 [Compound 40],> 1000 nM
21,Nc1nc2ccc(CNC(=O)c3cccc(Cl)n3)cc2s1 [Compound 261],> 1000 nM
22,CS(=O)(=O)c1ccc(CNC(=O)c2cccc(-n3cc(I)cn3)n2)cc1 [Compound 318],102 to 959 nM
23,CC(C)NC(=O)c1cccc(C(=O)NCc2cnn(-c3nccs3)c2)n1 [Compound 163],102 to 959 nM
24,Cc1cc(CNC(=O)c2cccc(C(=O)NC(C)C)n2)nn1C [Compound 103],1030 to 10000 nM and > 1000 nM
25,CCOC(=O)Nc1nc2ccc(CNC(=O)c3cccc(C(=O)NC(C)C)n3)cc2s1 [Compound 205],4 to 97 nM
26,NC(=O)c1cccc(C(=O)NCc2ccc3nc(N)sc3c2)n1 [Compound 52],102 to 959 nM
